Species: Rattus norvegicus
Experiment: Open TG-GATES - Regimen: Single
Type: toxicity, organism-based, Sprague-Dawley
Parameters: regimen Single, gender Male, age 6 weeks
Details: in vivo, po, route gavage; for APTT / Bas / Eos / Fbg / Hb / Ht / Lym / MCH / MCHC / MCV / Mono / Neu / PT / Plat / RBC / Ret / WBC: tissue Blood; for KIDNEY_L / KIDNEY_R / KIDNEY_TOTAL: tissue Kidney; for LIVER: tissue Liver; for A/G / ALP / ALT / AST / BUN / CRE / Ca / Cl / DBIL / GLC / IP / K / LDH / Na / PL / RALB / TBIL / TC / TG / TP / gamma-GTP: tissue Plasma
[1] = 0 mg/kg, 3 h, dose level Control
[2] = 0 mg/kg, 6 h, dose level Control
[3] = 0 mg/kg, 9 h, dose level Control
[4] = 0 mg/kg, 24 h, dose level Control
[5] = 400 mg/kg, 24 h, dose level Low

## CCO [ALCOHOL]
[1]
  TERMINAL_BW: 207 g
  APTT: 17.7 s
  Bas: 0%
  Eos: 1%
  Fbg: 200.4 mg/dL
  Hb: 13.3 g/dL
  Ht: 39.9%
  Lym: 76%
  MCH: 21.5 pg
  MCHC: 33.4%
  MCV: 64.2 fL
  Mono: 7.6%
  Neu: 15.2%
  PT: 12 s
  Plat: 110.3 x10_4/uL
  RBC: 622.4 x10_4/ul
  Ret: 8.9%
  WBC: 99.3 x10_2/uL
  KIDNEY_L: 0.9 g
  KIDNEY_R: 1 g
  KIDNEY_TOTAL: 1.9 g
  LIVER: 9.6 g
  A/G: 2.7
  ALP: 951 IU/L
  ALT: 39.2 IU/L
  AST: 69 IU/L
  BUN: 13 mg/dL
  CRE: 0.5 mg/dL
  Ca: 10.8 mg/dL
  Cl: 103.8 meq/L
  DBIL: 0.02 mg/dL
  GLC: 192 mg/dL
  IP: 8.7 mg/dL
  K: 4.5 meq/L
  LDH: 103.2 IU/L
  Na: 140 meq/L
  PL: 145.8 mg/dL
  RALB: 3.9 g/dL
  TBIL: 0.4 mg/dL
  TC: 83.8 mg/dL
  TG: 59.6 mg/dL
  TP: 5.3 g/dL
  gamma-GTP: 1.4 IU/L
[2]
  TERMINAL_BW: 207 g
  APTT: 18.8 s
  Bas: 0%
  Eos: 1%
  Fbg: 212 mg/dL
  Hb: 13.9 g/dL
  Ht: 41.4%
  Lym: 74%
  MCH: 21.8 pg
  MCHC: 33.5%
  MCV: 64.9 fL
  Mono: 9.2%
  Neu: 15.8%
  PT: 11.8 s
  Plat: 116.1 x10_4/uL
  RBC: 638.8 x10_4/ul
  Ret: 10.4%
  WBC: 90.5 x10_2/uL
  KIDNEY_L: 0.9 g
  KIDNEY_R: 1 g
  KIDNEY_TOTAL: 1.9 g
  LIVER: 9.6 g
  A/G: 2.4
  ALP: 727.6 IU/L
  ALT: 32.4 IU/L
  AST: 58.2 IU/L
  BUN: 11 mg/dL
  CRE: 0.5 mg/dL
  Ca: 10.4 mg/dL
  Cl: 105.2 meq/L
  DBIL: 0.06 mg/dL
  GLC: 184.8 mg/dL
  IP: 9.6 mg/dL
  K: 4.8 meq/L
  LDH: 62 IU/L
  Na: 139.6 meq/L
  PL: 141.8 mg/dL
  RALB: 3.8 g/dL
  TBIL: 0.4 mg/dL
  TC: 80.8 mg/dL
  TG: 55 mg/dL
  TP: 5.4 g/dL
  gamma-GTP: 2 IU/L
[3]
  TERMINAL_BW: 201.1 g
  APTT: 20.7 s
  Bas: 0%
  Eos: 1%
  Fbg: 199.2 mg/dL
  Hb: 13.5 g/dL
  Ht: 40.1%
  Lym: 66%
  MCH: 21.8 pg
  MCHC: 33.7%
  MCV: 64.6 fL
  Mono: 9.2%
  Neu: 23.6%
  PT: 12.2 s
  Plat: 112.2 x10_4/uL
  RBC: 620.8 x10_4/ul
  Ret: 11.7%
  WBC: 75.4 x10_2/uL
  KIDNEY_L: 0.9 g
  KIDNEY_R: 0.9 g
  KIDNEY_TOTAL: 1.9 g
  LIVER: 8.3 g
  A/G: 2.8
  ALP: 861 IU/L
  ALT: 30.8 IU/L
  AST: 66.8 IU/L
  BUN: 13.4 mg/dL
  CRE: 0.5 mg/dL
  Ca: 10.7 mg/dL
  Cl: 106.4 meq/L
  DBIL: 0.038 mg/dL
  GLC: 196.2 mg/dL
  IP: 9.8 mg/dL
  K: 5.1 meq/L
  LDH: 74.6 IU/L
  Na: 137.4 meq/L
  PL: 133.4 mg/dL
  RALB: 3.9 g/dL
  TBIL: 0.4 mg/dL
  TC: 74 mg/dL
  TG: 46.6 mg/dL
  TP: 5.3 g/dL
  gamma-GTP: 2 IU/L
[4]
  TERMINAL_BW: 219 g
  APTT: 17.7 s
  Bas: 0%
  Eos: 1.4%
  Fbg: 207.4 mg/dL
  Hb: 13.5 g/dL
  Ht: 39.6%
  Lym: 74.8%
  MCH: 22.3 pg
  MCHC: 34%
  MCV: 65.6 fL
  Mono: 9.8%
  Neu: 14.6%
  PT: 11.6 s
  Plat: 115.5 x10_4/uL
  RBC: 604 x10_4/ul
  Ret: 10%
  WBC: 101.6 x10_2/uL
  KIDNEY_L: 1 g
  KIDNEY_R: 1 g
  KIDNEY_TOTAL: 2 g
  LIVER: 10.4 g
  A/G: 2.6
  ALP: 862 IU/L
  ALT: 39.8 IU/L
  AST: 64.8 IU/L
  BUN: 17.2 mg/dL
  CRE: 0.5 mg/dL
  Ca: 10.9 mg/dL
  Cl: 103.4 meq/L
  DBIL: 0.006 mg/dL
  GLC: 194.4 mg/dL
  IP: 8.5 mg/dL
  K: 4.7 meq/L
  LDH: 87.8 IU/L
  Na: 139 meq/L
  PL: 150.2 mg/dL
  RALB: 4 g/dL
  TBIL: 0.3 mg/dL
  TC: 83 mg/dL
  TG: 100.8 mg/dL
  TP: 5.5 g/dL
  gamma-GTP: 1.4 IU/L
400 mg/kg, 3 h, dose level Low
  TERMINAL_BW: 202.6 g
  APTT: 16.4 s
  Bas: 0%
  Eos: 1%
  Fbg: 202.8 mg/dL
  Hb: 13.7 g/dL
  Ht: 40.7%
  Lym: 81.2%
  MCH: 21.8 pg
  MCHC: 33.6%
  MCV: 64.7 fL
  Mono: 5.6%
  Neu: 12.2%
  PT: 12 s
  Plat: 115.5 x10_4/uL
  RBC: 628.6 x10_4/ul
  Ret: 10%
  WBC: 77.8 x10_2/uL
  KIDNEY_L: 0.9 g
  KIDNEY_R: 0.9 g
  KIDNEY_TOTAL: 1.8 g
  LIVER: 9.6 g
  A/G: 2.5
  ALP: 1037.2 IU/L
  ALT: 36.2 IU/L
  AST: 69 IU/L
  BUN: 13.8 mg/dL
  CRE: 0.5 mg/dL
  Ca: 10.7 mg/dL
  Cl: 104.4 meq/L
  DBIL: 0.012 mg/dL
  GLC: 195.8 mg/dL
  IP: 9.3 mg/dL
  K: 4.4 meq/L
  LDH: 117.6 IU/L
  Na: 139.8 meq/L
  PL: 140.4 mg/dL
  RALB: 3.9 g/dL
  TBIL: 0.4 mg/dL
  TC: 76.4 mg/dL
  TG: 66 mg/dL
  TP: 5.4 g/dL
  gamma-GTP: 1.2 IU/L
400 mg/kg, 6 h, dose level Low
  TERMINAL_BW: 202.6 g
  APTT: 17.9 s
  Bas: 0%
  Eos: 1%
  Fbg: 220.2 mg/dL
  Hb: 13.8 g/dL
  Ht: 41.1%
  Lym: 70.4%
  MCH: 21.7 pg
  MCHC: 33.6%
  MCV: 64.6 fL
  Mono: 6.6%
  Neu: 22.4%
  PT: 11.8 s
  Plat: 114.6 x10_4/uL
  RBC: 636.6 x10_4/ul
  Ret: 10.1%
  WBC: 98 x10_2/uL
  KIDNEY_L: 0.9 g
  KIDNEY_R: 0.9 g
  KIDNEY_TOTAL: 1.8 g
  LIVER: 9.6 g
  A/G: 2.3
  ALP: 802 IU/L
  ALT: 29.8 IU/L
  AST: 61.8 IU/L
  BUN: 11.2 mg/dL
  CRE: 0.5 mg/dL
  Ca: 10.5 mg/dL
  Cl: 105 meq/L
  DBIL: 0.068 mg/dL
  GLC: 197.2 mg/dL
  IP: 9.8 mg/dL
  K: 4.7 meq/L
  LDH: 90.2 IU/L
  Na: 139.6 meq/L
  PL: 135.4 mg/dL
  RALB: 3.8 g/dL
  TBIL: 0.4 mg/dL
  TC: 75 mg/dL
  TG: 53.2 mg/dL
  TP: 5.4 g/dL
  gamma-GTP: 1.8 IU/L
400 mg/kg, 9 h, dose level Low
  TERMINAL_BW: 203.1 g
  APTT: 18.5 s
  Bas: 0%
  Eos: 1.4%
  Fbg: 205 mg/dL
  Hb: 13.4 g/dL
  Ht: 40.1%
  Lym: 70.4%
  MCH: 21.7 pg
  MCHC: 33.5%
  MCV: 64.7 fL
  Mono: 7.6%
  Neu: 20.4%
  PT: 12 s
  Plat: 110.8 x10_4/uL
  RBC: 619 x10_4/ul
  Ret: 10.4%
  WBC: 90.1 x10_2/uL
  KIDNEY_L: 0.9 g
  KIDNEY_R: 0.9 g
  KIDNEY_TOTAL: 1.8 g
  LIVER: 8.6 g
  A/G: 2.9
  ALP: 826.6 IU/L
  ALT: 30.2 IU/L
  AST: 63 IU/L
  BUN: 12.8 mg/dL
  CRE: 0.5 mg/dL
  Ca: 10.9 mg/dL
  Cl: 105.6 meq/L
  DBIL: 0.038 mg/dL
  GLC: 199.4 mg/dL
  IP: 9.9 mg/dL
  K: 4.5 meq/L
  LDH: 106.4 IU/L
  Na: 137 meq/L
  PL: 137.4 mg/dL
  RALB: 4.1 g/dL
  TBIL: 0.4 mg/dL
  TC: 79.4 mg/dL
  TG: 37.2 mg/dL
  TP: 5.5 g/dL
  gamma-GTP: 1.8 IU/L
[5]
  TERMINAL_BW: 214.8 g
  APTT: 16.9 s
  Bas: 0%
  Eos: 1.6%
  Fbg: 196.4 mg/dL
  Hb: 13.2 g/dL
  Ht: 39.2%
  Lym: 75%
  MCH: 21.3 pg
  MCHC: 33.7%
  MCV: 63.3 fL
  Mono: 7.2%
  Neu: 17%
  PT: 11.5 s
  Plat: 122.1 x10_4/uL
  RBC: 619 x10_4/ul
  Ret: 10.5%
  WBC: 85 x10_2/uL
  KIDNEY_L: 1 g
  KIDNEY_R: 1 g
  KIDNEY_TOTAL: 2 g
  LIVER: 9.9 g
  A/G: 2.6
  ALP: 906 IU/L
  ALT: 41 IU/L
  AST: 65.4 IU/L
  BUN: 17.8 mg/dL
  CRE: 0.5 mg/dL
  Ca: 11 mg/dL
  Cl: 104.4 meq/L
  DBIL: 0.018 mg/dL
  GLC: 201 mg/dL
  IP: 8.1 mg/dL
  K: 4.7 meq/L
  LDH: 103.6 IU/L
  Na: 139 meq/L
  PL: 142 mg/dL
  RALB: 4 g/dL
  TBIL: 0.4 mg/dL
  TC: 79.2 mg/dL
  TG: 61.4 mg/dL
  TP: 5.6 g/dL
  gamma-GTP: 1.6 IU/L
